Measured values from patent US4138554A, “7-[D-α-(4-Hydroxy-1,5-naphthyridine-3-carboxamido)-α-phenyl (and p-hydroxyphenyl)acetamido]-3-carbamoyloxymethyl-3-cephem-4-carboxylic acids” (priority 1977, dated 1979).
Like-named read-outs stand apart in the source and are kept apart here.

Test system: Pseudomonas aeruginosa
Experiment: MIC by agar dilution against 61 strains of Pseudomonas aeruginosa, secondary evaluation
Format: cell-based
Details: Pseudomonas aeruginosa, read-out: MIC
Description: Minimum inhibitory concentrations (MIC) of BB-S520 were determined by serial two-fold agar dilution method using Steers' apparatus on Meuller-Hinton agar plate against 31 test organisms for the primary screening and also against 61 strains of Pseudomonas aeruginosa for the secondary evaluation. The results are shown in Table 1 and Table 2 along with those of BB-S514 and sulbenicillin.
Minimum inhibitory concentrations (MIC) of cephalosporins in the present study were determined by serial two-fold agar dilution method using Steers' apparatus on Mueller-Hinton agar plate against 31 test organisms for the primary screening and also against 61 strains of Pseudomonas aeruginosa for the secondary evaluation.

## NC(=O)OCC1=C(C(=O)O)N2C(=O)C(NC(=O)[C@H](NC(=O)c3cnc4cccnc4c3O)c3ccccc3)[C@H]2SC1 (stereo partly drawn) [BB-S520, Sodium 7-[D-α-(4-hydroxy-1,5-naphthyridine-3-carboxamido)-α-phenylacetamido]-3-carbamoyloxymethyl-3-cephem-4-carboxylate]
BBRI Pa-No. 31, Table 7
  MIC: 0.8 µg/mL
BBRI Pa-No. 32, Table 2
  MIC: 3.1 µg/mL
BBRI Pa-No. 32, Table 7
  MIC: 1.6 µg/mL
BBRI Pa-No. 33, Table 2
  MIC: 12.5 µg/mL
BBRI Pa-No. 33, Table 7
  MIC: 1.6 µg/mL
BBRI Pa-No. 34, Table 2
  MIC: 3.1 µg/mL
BBRI Pa-No. 34, Table 7
  MIC: 1.6 µg/mL
BBRI Pa-No. 35, Table 2
  MIC: 12.5 µg/mL
BBRI Pa-No. 35, Table 7
  MIC: 6.3 µg/mL
BBRI Pa-No. 36, Table 2
  MIC: 0.4 µg/mL
BBRI Pa-No. 36, Table 7
  MIC: < 0.2 µg/mL
BBRI Pa-No. 37, Table 2
  MIC: 3.1 µg/mL
BBRI Pa-No. 37, Table 7
  MIC: 3.1 µg/mL
BBRI Pa-No. 38, Table 2
  MIC: 6.3 µg/mL
BBRI Pa-No. 38, Table 7
  MIC: 6.3 µg/mL
BBRI Pa-No. 39, Table 2
  MIC: 3.1 µg/mL
BBRI Pa-No. 39, Table 7
  MIC: 1.6 µg/mL
BBRI Pa-No. 41, Table 2
  MIC: 3.1 µg/mL
BBRI Pa-No. 41, Table 7
  MIC: 3.1 µg/mL
BBRI Pa-No. 42, Table 2
  MIC: 6.3 µg/mL
BBRI Pa-No. 42, Table 7
  MIC: 1.6 µg/mL
BBRI Pa-No. 43, Table 2
  MIC: 6.3 µg/mL
BBRI Pa-No. 43, Table 7
  MIC: 3.1 µg/mL
BBRI Pa-No. 44 (unnamed strain), Table 7
  MIC: 3.1 µg/mL
BBRI Pa-No. 44, Table 2
  MIC: 6.3 µg/mL
BBRI Pa-No. 51, Table 2
  MIC: 3.1 µg/mL
BBRI Pa-No. 51, Table 7
  MIC: 1.6 µg/mL
BBRI Pa-No. 52, Table 2
  MIC: 3.1 µg/mL
BBRI Pa-No. 52, Table 7
  MIC: 3.1 µg/mL
BBRI Pa-No. 53, Table 2
  MIC: 3.1 µg/mL
BBRI Pa-No. 53, Table 7
  MIC: 1.6 µg/mL
BBRI Pa-No. 54, Table 2
  MIC: 3.1 µg/mL
BBRI Pa-No. 54, Table 7
  MIC: 1.6 µg/mL
BBRI Pa-No. 55, Table 2
  MIC: 3.1 µg/mL
BBRI Pa-No. 55, Table 7
  MIC: 3.1 µg/mL
BBRI Pa-No. 56, Table 2
  MIC: 3.1 µg/mL
BBRI Pa-No. 56, Table 7
  MIC: 3.1 µg/mL
BBRI Pa-No. 57, Table 2
  MIC: 3.1 µg/mL
BBRI Pa-No. 57, Table 7
  MIC: 1.6 µg/mL
BBRI Pa-No. 58, Table 2
  MIC: 6.3 µg/mL
BBRI Pa-No. 58, Table 7
  MIC: 3.1 µg/mL
BBRI Pa-No. 59, Table 2
  MIC: 6.3 µg/mL
BBRI Pa-No. 59, Table 7
  MIC: 1.6 µg/mL
BBRI Pa-No. 60, Table 2
  MIC: 3.1 µg/mL
BBRI Pa-No. 60, Table 7
  MIC: 1.6 µg/mL
BBRI Pa-No. 61, Table 2
  MIC: 6.3 µg/mL
BBRI Pa-No. 61, Table 7
  MIC: 1.6 µg/mL
BBRI Pa-No. 62, Table 2
  MIC: 6.3 µg/mL
BBRI Pa-No. 62, Table 7
  MIC: 50 µg/mL
BBRI Pa-No. 64, Table 2
  MIC: 3.1 µg/mL
BBRI Pa-No. 64, Table 7
  MIC: 3.1 µg/mL
BBRI Pa-No. 65, Table 2
  MIC: 3.1 µg/mL
BBRI Pa-No. 65, Table 7
  MIC: 1.6 µg/mL
BBRI Pa-No. 66, Table 2
  MIC: 3.1 µg/mL
BBRI Pa-No. 66, Table 7
  MIC: 1.6 µg/mL
BBRI Pa-No. 67, Table 2
  MIC: 6.3 µg/mL
BBRI Pa-No. 67, Table 7
  MIC: 3.1 µg/mL
BBRI Pa-No. 68, Table 2
  MIC: 6.3 µg/mL
BBRI Pa-No. 68, Table 7
  MIC: 3.1 µg/mL
BBRI Pa-No. 69, Table 2
  MIC: 12.5 µg/mL
BBRI Pa-No. 69, Table 7
  MIC: 6.3 µg/mL
BBRI Pa-No. 70, K-Ps102 (CR-102), Table 2
  MIC: 3.1 µg/mL
BBRI Pa-No. 70, K-Ps102(CR-102), Table 7
  MIC: 1.6 µg/mL
GN315, BBRI Pa-No. 27, GN315, Table 2
  MIC: 3.1 µg/mL
GN315, BBRI Pa-No. 27, GN315, Table 7
  MIC: 1.6 µg/mL
GN4925, BBRI Pa-No. 44, GN4925, Table 7
  MIC: 6.3 µg/mL
GN4925, BBRI Pa-No. 45, GN4925, Table 2
  MIC: 6.3 µg/mL
